Laboratory results reported in patent US12721846B2, “Methods for treating behavioral and psychological symptoms in patients with dementia” (SUVEN LIFE SCIENCES LIMITED, priority 2019, dated 2026).
Entries after “also recorded” stand apart in the source; their conditions may differ.

Columns and labels:
[1] = 30 mg daily dose; patients with AD; cited from earlier work
[2] = cited from earlier work
[3] = test system: DOI induced head twitch response (model of hallucination); test: DOI induced head twitch response; format: in vivo, rat; conditions: 1 mg/kg, p.o.; DOI 5 mg/kg s.c.; 10 min
Method: DOI induced head twitch response is considered to be a behavioral model of hallucination (Pharmacol Rep. 2012; 64(6):1567-72). Male Wistar rats of 200-290 g were weighed and randomized according to their body weights. On day 1, rats were first habituated to the arena for 15 min. […] 15 min before the trial, rats were subjected to habituation and immediately following the habituation, DOI, 5 mg/kg s.c was administered. The rats were then placed in the arena and head twitches were recorded for 10 min. Data were analyzed using GraphPad Prism software.

[4] = test system: Swiss albino mice (aggression, duration of attack); test: Resident-intruder task; format: in vivo, mouse; conditions: masupirdine 0.30 mg/kg p.o. 60 min prior; donepezil or memantine 0.30 mg/kg i.p. 30 min prior; 10 min exposure
Method: Male Swiss albino mice of weight range 30-40 g (Resident) and 15-25 g (Intruder) were used. Resident mice were habituated individually with an ovariectomized female mouse in each cage for at least 2 weeks and intruders were habituated socially for at least 5 days. β-Estradiol at a dose of 0.2 mg/kg, s.c. was administered to ovariectomized female mice during habituation. After habituation for 3 weeks, the intruder was exposed to resident mice for a period of 10 min in the home cage of resident animal and duration of attack was recorded for two days (day 1 & 2). During this 10 min exposure period, ovariectomized female mice were removed from resident cage, resident animals were randomized based on their duration of attack. On day 4 (from initial exposure), resident animals were administered respective treatments. […] After post dose interval resident mice were exposed to same intruder for 10 min and duration of attack was recorded. Data were analyzed using GraphPad Prism software.

[5] = test system: norepinephrine and dopamine levels in prefrontal cortex; test: Microdialysis: modulation of norepinephrine and dopamine levels in cortex; format: in vivo, rat; conditions: male Wistar rats, masupirdine 3 mg/kg p.o., donepezil or memantine 1 mg/kg s.c.
Text: Male Wistar rats (240-300 g body weight) were stereotaxically implanted with a microdialysis guide cannula in prefrontal cortex (PFC; AP: +3.2 mm, ML: −0.5 mm, DV: −1.0 mm) under isoflurane anesthesia. […] The rats were allowed to recover individually for four days in a round bottom Plexiglas bowl with free access to feed and water.
Sixteen hours before start of the study, a pre-equilibrated microdialysis probe (4 mm dialysis membrane) was inserted into PFC through the guide cannula. On the day of study, probe was perfused with artificial cerebrospinal fluid (aCSF; NaCl 150 mmol, KCl 3.0 mmol, MgCl2 0.9 mmol, CaCl2. 2H2O 1.7 mmol, pH 6.2) at a flow rate of 1.5 μL/min and a stabilization period of 2 h was maintained. […] Dialysates were stored below −50° C. prior to analysis.
Norepinephrine and dopamine levels in dialysates were quantified using LC-MS/MS method.
Statistical significance was considered at a p value less than 0.05.

Compound: CN(C)CCCC1(c2ccc(F)cc2)OCc2cc(C#N)ccc21 (centres unmarked) [Citalopram]
- adverse effects seen in treatment group [1]: Worsening of cognition; also recorded: QT interval prolongation

Compound: CC(C)COc1ccc(CNC(=O)N(Cc2ccc(F)cc2)C2CCN(C)CC2)cc1 [Pimavanserin]
- effect for agitation ([2]; AD study): no effect
- effect on NPI-NH psychosis scale ([2]; week 6): statistically significant effect

Compound: COc1ccc2c(c1)c(CN1CCN(C)CC1)cn2S(=O)(=O)c1ccccc1Br [masupirdine, 1-[(2-bromophenyl)sulfonyl]-5-methoxy-3-[(4-methyl-1-piperazinyl)methyl]-1H-indole]
- number of head twitches [3]: significantly reduced the number of head twitches
- duration of attack compared with basal [4]: equal duration of attack

Compound: CC12CC3CC(C)(C1)CC(N)(C3)C2 [memantine]
- cortical dopamine levels, AUC of percent change [5]: 327.75±24.99
- cortical norepinephrine levels, AUC of percent change [5]: 371.34±22.45
- duration of attack compared with basal [4]: decrease in duration of attack when compared with its basal; however it was not statistically significant
